Laboratory results from US5891657A (priority 1994, dated 1999).
≈ marks a conversion by molar mass, not a printed value.

How the values were obtained:
[1] = system: anti-analyte antibody; settings: magnetic-particle enzyme immunoassay
Procedure: (§1) The sample to be tested is added, along with the enzyme conjugate, to a disposable test tube followed by the addition of paramagnetic particles with analyte-specific antibodies attached. At the end of an incubation period, a magnetic field is applied to hold the paramagnetic particles (with analyte and enzyme-conjugate bound to the antibodies on the particles, in proportion to their original concentration in the tube) in the tube and allow the unbound reagents to be decanted. After decanting, the particles are washed with Washing Solution.
(§2) The presence of analyte is detected by adding the enzyme substrate (hydrogen peroxide) and the chromogen (3,3',5,5'-tetramethylbenzidine). The enzyme-conjugate bound to the anti-analyte antibody catalyzes the conversion of the substrate/chromogen mixture to a colored product. After an incubation period, the reaction is stopped and stabilized by the addition of acid. Since the conjugate was in competition with the unlabeled analyte for the antibody sites, the color developed is inversely proportional to the concentration of analyte in the sample.
(§3) 200 μl of either standard, control or sample is added to each tube.
(§4) 250 μl of conjugate is added to each tube.
(§5) The antibody-coupled paramagnetic particles are mixed thoroughly and 500 ul of them are added to each tube (The stock solution with a concentration of 8-10 mg iron/ml was diluted 1:1000 in 150 mM Tris, 150 mM NaCl, 1 mM EDTA, 0.1% BSA with 15 ppm Proclin, pH 7.4 and 500 ul was added to each tube).
(§6) Tubes are vortexed for 1 to 2 seconds minimizing foaming.
(§7) Tubes are incubated for 15 min at room temperature (15°-30° C.).
(§8) Tubes in the magnetic rack are placed over a magnetic base for two minutes.
(§9) The tubes are decanted and gently blotted briefly in a consistent manner.
(§10) One ml of Washing Solution is added to each tube and the tubes are allowed to remain in the separation rack for two minutes.
(§11) Decant and gently blot all tubes briefly in a consistent manner.
(§12) Repeat steps 8 and 9 an additional time.
(§13) Remove the rack from the separator and add 500 μl of Color Solution to eac tube.
(§14) Vortex for 1 to 2 seconds minimizing foaming.
(§15) Incubate for 20 minutes at room temperature.
(§16) Add 500 μl of Stopping Solution to each tube.
(§17) Read results at 450 nm within 15 minutes after adding the Stopping Solution.
(§18) Calculating the mean absorbance value for each standard.
(§19) Calculating the % B/B0 for each standard by dividing the mean absorbance value for the standard by the mean absorbance value for the Diluent/Zero Standard In other words if the mean absorbance value for the standard is 0.5 times the mean absorbance value for the Diluent/Zero Standard then the % B/B0 is 50% and the concentration of standard used is the 50% B/B0 concentration.)
(§20) Constructing a standard curve by plotting the % B/B0 for each standard on vertical logit (Y) axis versus the corresponding analyte concentration on a horizontal algorithmic (X) axis.
(§21) 4. % B/B0 for controls and sample will then yield levels in ppm of analyte by interpolation using the standard curve.

[2] = Loss of immunoreactivity on storage in open test tube (volatilization); type: physicochemical; settings: conditions of Example 1; 2,4-D 10 ppm, naphthalene 0.75 ppm; FIG. 5
Procedure: They were stored in 10 ml of distilled water at room temperature (15°-30° C.) in an open test tube (18 mm in diameter, and 150 mm in length).
The "Recovery" was taken to be inversely proportional to the light at 450 nm generated in the assay. […] The loss of reactivity as a function of time was concluded that the loss was due to volatilization and not chemical decomposition of the compounds. Also the loss was so great that it was concluded that even if the solutions had been incubated as 2 ml aliquots in 3 ml closed vials, much more than 30 percent would have volatilized over a 14-day period.
Additionally, preparations of anthracene (20 ppm), naphthalene (0.75 ppm), and 2,4-D (10 ppm), were tested for their immunoreactivity using the conditions of using the conditions described in Example 1.

[3] = system: anti-analyte antibody; assay: Cross-reactivity / immunoreactivity in competitive magnetic-particle enzyme immunoassay
Procedure: as §1, §2, §3, §4, §5, §6, §7, §8, §9, §10, §11, §12, §13, §14, §15, §16, §17, §18, §19, §20, §21

[4] = Stability (lack of volatilization) of 2 ml solution in stoppered 3 ml vial; type: physicochemical; settings: 0.035, 0.10, 0.750 ppm; 2 ml in stoppered 3 ml vial; various temperatures; 60 days; FIGS. 2-4
Procedure: Storage was effected by incubating the 2 ml of solution in a stoppered vial with a 3 ml capacity. The one ml of open "head space" in the vial […] to allow volatilization of the N-(3-methylbenzyl)-diglycolic acid, monoamide.
At each concentration of the N-(3-methylbenzyl)-diglycolic acid, monoamide, the immunoassay was performed at various temperatures denoted in the Figure summarizing the results.

[5] = because of boiling point 279° C. (Merck Index); cited from earlier work
[6] = Storage stability, 2.5 ml in 3.5 ml vials, antibody preparation reactive with anthracene and phenanthrene; type: physicochemical
Procedure: Additional experiments were done using volumes of 2.5 ml in 3.5 ml vials and an antibody preparation reactive with anthracene and phenanthrene, the antibodies not made with the immunogen described herein and although much less suited for purposes of the present inventions than that made from the described immunogen, were adequate for obtaining the stability curves. (The results were considered to essentially reflect what would have occurred if the storage was done with 2 ml of solution in a 3 ml vial.) Anthracene was tested at concentrations of 1 ppb (upper set of curves in FIG. 6), 10 ppb (middle set of curves in FIG. 6) and 100 ppb (lower set of curves in FIG. 6) in TBS pH 7.0 at the specified temperatures in FIG. 6. Phenanthrene was tested at concentrations of 1 ppb (upper set of curves in FIG. 7), 10 ppb (middle set of curves in FIG. 7) and 100 ppb (lower set of curves in FIG. 7) in TBS at pH 7.0 at the specified temperatures in FIG. 7.

| Compound | IC50 [1] [µg/mL] | other results |
| --- | --- | --- |
| Cc1ccc(C)c(C)c1 [1,2,4-trimethylbenzene] | 1.15 (≈ 9.57 µM) | – |
| Cc1cc(C)cc(C)c1 [1,3,5-tri-methylbenzene] | 3.5 (≈ 29.1 µM) | – |
| O=C(O)COc1ccc(Cl)cc1Cl [2,4-D] | – | stability on storage [2]: more stable than m-xylene but less stable than anthracene |
| Cc1cccc(CNC(=O)COCC(=O)O)c1 [N-(3-methylbenzyl)-diglycolic acid, monoamide] | – | equivalent Total BTEX concentration ([3]; standard at 0.035 ppm): approximately 0.09 ppm; equivalent Total BTEX concentration ([3]; standard at 0.035 ppm, monoamide): 0.09 ppm; equivalent Total BTEX concentration ([3]; standard at 0.10 ppm): approximately 0.35 ppm; equivalent Total BTEX concentration ([3]; standard at 0.10 ppm, monoamide): 0.35 ppm; equivalent Total BTEX concentration ([3]; standard at 0.75 ppm): approximately 3.00 ppm; equivalent Total BTEX concentration ([3]; standard at 0.75 ppm, monoamide): 3.00 ppm; stability (lack of volatilization) as a function of storage time [4]: essentially stable |
| c1cc2c3c(cccc3c1)CC2 [acenaphthene] | 6.2 (≈ 40.2 µM) | stability as regards volatilization [5]: stable as regards volatilization |
| c1ccc2cc3ccccc3cc2c1 [anthracene] | 28 (≈ 157 µM) | stability on storage ([6]; 1, 10, 100 ppb in TBS pH 7.0, 2.5 ml in 3.5 ml vials, FIGS. 6, 7): very stable (meets the 14-day test) |
| c1ccccc1 [benzene] | 51 (≈ 653 µM) | – |
| C1CCCCC1 [cyclohexane] | > 100 | – |
| CCc1ccccc1 [ethylbenzene] | 7.8 (≈ 73.5 µM) | – |
| Clc1c(Cl)c(Cl)c(Cl)c(Cl)c1Cl [hexachlorobenzene] | > 100 | – |
| Cc1cccc(C)c1 [m-xylene] | 1.8 (≈ 17 µM) | – |
| ClCCl [methylene chloride] | > 100 | – |
| CCCCCCCCCC [n-decane] | > 100 | – |
| CCCCCCC [n-heptane] | 72 (≈ 719 µM) | – |
| CCCCCC [n-hexane] | > 100 | – |
| CCCCCCCCC [n-nonane] | > 100 | – |
| CCCCCCCC [n-octane] | > 100 | – |
| CCCc1ccccc1 [n-propylbenzene] | 4.7 (≈ 39.1 µM) | – |
| c1ccc2ccccc2c1 [naphthalene] | 0.59 (≈ 4.6 µM) | stability on storage [2]: not sufficiently stable |
| Cc1ccccc1C [o-xylene] | 4.7 (≈ 44.3 µM) | – |
| Cc1ccc(C)cc1 [p-xylene] | 3.1 (≈ 29.2 µM) | – |
| c1ccc2c(c1)ccc1ccccc12 [phenanthrene] | 1.6 (≈ 8.98 µM) | stability on storage ([6]; pH 7): very stable (meets the 14-day test) |
| C=Cc1ccccc1 [styrene] | 2.6 (≈ 25 µM) | – |
| Cc1ccccc1 [toluene] | 7.4 (≈ 80.3 µM) | – |
| ClC=C(Cl)Cl [trichloroethylene] | > 100 | – |
